Test results taken from US20020062499A1, “Methods for translational repression of gene expression in plants” (priority 2000, published 2002).

Columns and labels:
[1] = tested on: aroA:CP4 EPSPS reporter gene expression; experiment: MS2 CP translational repression of CP4 EPSPS reporter, corn protoplast transient assay (ELISA); assay type: cell-based; settings: corn protoplasts
Experimental: Corn protoplasts are prepared from etiolated leaves of antiseptically grown seedlings. Six to eight grams of leaf tissue is harvested and put in the enzyme mix (1% cellulase, 0.1% macerozyme, 0.6 M mannitol, 10 mM MES (pH =5.7), 1 mM CaCl2, 1 mM MgCl2, and 0. 1% BSA) in 100×25 mm petri plates. The leaf digestion is done for 135 minutes, swirling on a shaker at 50 rpm at 26° C. under light (10-25 mico-einsteins) in a growth chamber (Percival Scientific Inc., Boone, Iowa). Protoplasts are screened through a 190 μm sterile tissue mesh into a petri plate. The protoplasts are spun down in a table top centrifuge at 800 rpm (˜200 g) for 8 minutes. The supernatant is removed carefully by pipetting. The protoplasts are resuspended in 10 mL per tube of the 0.6 M mannitol rinse. They are spun down a second time using the same conditions and re-suspended in 10 mL of the electroporation buffer (0.6 M mannitol, 4 mM MES, 1.0 mM β-mercaptoethanol, 25 mM KCL, pH =5.7) and put on ice. The number of protoplasts is determined by making counts on a hemacytometer and a final density of 4.5×10^6 per mL is obtained with the proper volume of electroporation buffer. For electroporation, 0.75 mL of protoplasts is added to each cuvette followed by the addition of plasmid DNA in a volume of 50 μL or less. Samples are electroporated at 125 […] and 260 volts using a Bio-Rad Gene Pulser Electroporater (Bio-Rad CA) and incubated in Murishige-Skoog medium (MS) +0.6 M mannitol in the light at 26° C. for 18-22 hours before analysis. Protoplasts are harvested by spinning down at 800-1000 rpm in a table top centrifuge and lysed by resuspending in 500 μL extraction buffer (IX phosphate buffered saline [PBS] (Roche Boehringer Mannheim #1666789, Nutley, N.J.) 0.2% BSA, 0.5% Tween 20, pH 7.4) and vortexed for five seconds. Samples are spun at 3,000 rpm for 5 min in a table top centrifuge and the supernatant is saved to a fresh tube and put on ice ready for analysis.
The total amount of DNA in each sample is equalized by using as a carrier an appropriate amount of an empty vector plasmid DNA pMON999 (P-CaMV.35S/T-AGRTU.nos). With the aroA:CP4 EPSPS gene as the reporter, the GUS activity encoded by a separate plasmid is used as an internal control to normalize the expression. Similarly, the aroA:CP4 EPSPS gene expression is used for normalization when the Ec.uidA (GUS) gene is used as the reporter.
The aroA:CP4 EPSPS expression is quantitated by ELISA. A crude protoplast extract containing lmg total protein is added to goat anti-CP4 EPSPS IgG coated wells of a 96-well microtiter plate for immunoreaction. Antibodies specific to CP4 EPSPS are produced in goats by immunization of three goats with recombinant SDS-PAGE purified CP4 EPSPS from recombinant E. coli. […]

[2] = tested on: GUS expression; experiment: MS2 translation repression system in transgenic Arabidopsis (F1 segregants of crosses); assay type: in vivo; settings: Arabidopsis plants containing the MS2 coat protein
Experimental: Arabidopsis plants are transformed by the Agrobacterium infiltration method as described (Bechtold et al., Methods Mol. Biol. 82:259-66 (1992)). DNA gel blots (Southern blot analysis), RNA gel blots (northern blot analysis) and protein immunoblots (western blot analysis) are carried out using standard protocols (Sambrook et al., Molecular Cloning: A laboratory manual, 2nd ed. Cold Spring Harbor Laboratory Press, Cold Spring Harbor, N.Y., (1989)).
V1 plants positive for GUS and MS2 coat protein are identified using a GUS assay (Jefferson et al., Plant Mol. Bio. Rep. 5:387-405 (1987)) and western blot analysis, respectively. Positive plants with a low copy number are identified by Southern analysis then cross pollinated. F1 plants from the cross are then subjected to PCR analysis to identify segregants that contained both transgenes as well as siblings that contained only the uidA gene. GUS expression levels are determined by MUG assays (Jefferson et al., Plant Mol. Bio. Rep. 5:387-405, (1987)) in both groups of plants for three separate crosses (25×1, 25×12, and 14×23).

[3] = tested on: CP4 EPSPS reporter gene expression; experiment: Yeast RPL32 translational repression of CP4 EPSPS reporter in corn protoplasts; assay type: cell-based; settings: CP4 EPSPS reporter with RPL32 operator
Experimental: (§1) Corn protoplasts are prepared from etiolated leaves of antiseptically grown seedlings. Six to eight grams of leaf tissue is harvested and put in the enzyme mix (1% cellulase, 0.1% macerozyme, 0.6 M mannitol, 10 mM MES (pH =5.7), 1 mM CaCl2, 1 mM MgCl2, and 0. 1% BSA) in 100×25 mm petri plates. The leaf digestion is done for 135 minutes, swirling on a shaker at 50 rpm at 26° C. under light (10-25 mico-einsteins) in a growth chamber (Percival Scientific Inc., Boone, Iowa). Protoplasts are screened through a 190 μm sterile tissue mesh into a petri plate. The protoplasts are spun down in a table top centrifuge at 800 rpm (˜200 g) for 8 minutes. The supernatant is removed carefully by pipetting. The protoplasts are resuspended in 10 mL per tube of the 0.6 M mannitol rinse. […] The number of protoplasts is determined by making counts on a hemacytometer and a final density of 4.5×10^6 per mL is obtained with the proper volume of electroporation buffer. […] Samples are spun at 3,000 rpm for 5 min in a table top centrifuge and the supernatant is saved to a fresh tube and put on ice ready for analysis.
For CP4 EPSPS ELISA assay, a 96-well Nunc-Immuno MaxiSorb plate is coated with 100 μL of purified monoclonal anti-CP4 EPSPS IgG antibody (1 ng/μL) in coating buffer (15 mM Na2CO3, 35 mM NaHCO3, pH 9.6). […] The plate is read on a Spectra Max 340 (Molecular Devices, Sunnyvail, Calif. 94089) at 450 nm. […]

[4] = tested on: Ec.uidA reporter gene with the MS2 operator in the 5′UTR; experiment: MS2 CP translational repression of Ec.uidA (GUS) reporter, corn protoplast transient assay; assay type: cell-based; settings: pMON42178/pMON42176 and pMON42180/pMON42177; corn protoplasts
Experimental: as §1, with “analysis. […]” for “analysis.”
A fluorometry assay for GUS activity is performed as described (Jefferson, Plant Mol. Bio. Rep. 5:387-405 (1987)). GUS activity is measured with the fluorometric substrate 4-methylumbelliferryl-β-glucuronide (4-MUG) on a Fmax fluorimeter (Molecular Devices Corp., Sunnyvale, Calif.). […]

[5] = 4:1 DNA molar ratio of the coat protein gene to the reporter
[6] = MS2 coat protein gene co-expressed

Molecule: MS2 coat protein: coat protein of the MS2 RNA bacteriophage, RNA-binding translational repressor
- expression of the aroA:CP4 EPSPS reporter gene, % of the control [1, 5]: 0.4%
- fold repression of aroA:CP4 EPSPS reporter [1, 5]: 270 fold
- expression of the aroA:CP4 EPSPS reporter gene, % of the control [1, 6]: 14%
- fold repression of aroA:CP4 EPSPS reporter [1, 6]: about 7 fold
- GUS activity, % of the control [2]: 6.9%
- fold repression of GUS activity [2]: 14 fold

Molecule: RPL32: yeast (Saccharomyces cerevisiae) ribosomal protein RPL32, an RNA-binding protein
- fold reduction of translation [3]: up to 2.3 fold
- translation, % of the control [3]: ≥ 43%

B1: MS2 CP:en: plant expression enhanced version of the MS2 CP gene (SEQ ID NO:3) (nucleic acid)
DNA: ATGGCCTCCAACTTCACCCAGTTCGTGCTCGTGGACAACGGCGGCACCGGCGACGTGACCGTCGCCCCAAGCAACTTCGCCAACGGGGTCGCCGAGTGGATCAGCTCCAACTCGCGCTCCCAGGCCTACAAGGTGACCTGCAGCGTGCGCCAGTCCTCCGCGCAGAACCGCAAGTACACCATCAAGGTCGAGGTGCCGAAGGTGGCCACCCAGACCGTCGGCGGCGTGGAGCTGCCAGTGGCCGCCTGGCGCTCGTACCTCAACATGGAGCTGACCATCCCAATCTTCGCCACGAACTCCGACTGCGAGCTGATCGTGAAGGCCATGCAAGGCCTCCTGAAGGACGGCAACCCGATCCCCTCCGCCATCGCCGCCAACTCCGGCATCTACTAA
modifications: synthetic plant MS2 CP gene
- increase in efficiency of translational repression compared to the respective native gene construct, expressed as decrease in GUS activity [4]: 74-80%
